Patent US7268241B2, “Method for the production of 4-(17$g(a)-methyl substituted 3-oxoestra-4 9-dien-11$g(b)-yl)benzaldehyd-(1e or 1z)-oximes” (Schering AG, priority 2000, dated 2007)
Blank lines part the entries; values can stand above or below the compound they belong to.

Key:
Glucocorticoid Receptor = target: T1, Glucocorticoid Receptor (Rattus norvegicus, UniProt P06536); assay: Receptor binding affinity, competitive binding of 3H-Dexamethasone tracer in thymus cytosol; conditions: relative binding affinity; thymus cytosol of the adrenalectomized rat; tracer 3H-Dexamethasone; reference Dexamethasone = 100%
T1 construct: receptors in the cytosol from animal target organs; from tissue; host or cells: thymus cytosol of adrenalectomized rat
T1 sequence (P06536 1-795): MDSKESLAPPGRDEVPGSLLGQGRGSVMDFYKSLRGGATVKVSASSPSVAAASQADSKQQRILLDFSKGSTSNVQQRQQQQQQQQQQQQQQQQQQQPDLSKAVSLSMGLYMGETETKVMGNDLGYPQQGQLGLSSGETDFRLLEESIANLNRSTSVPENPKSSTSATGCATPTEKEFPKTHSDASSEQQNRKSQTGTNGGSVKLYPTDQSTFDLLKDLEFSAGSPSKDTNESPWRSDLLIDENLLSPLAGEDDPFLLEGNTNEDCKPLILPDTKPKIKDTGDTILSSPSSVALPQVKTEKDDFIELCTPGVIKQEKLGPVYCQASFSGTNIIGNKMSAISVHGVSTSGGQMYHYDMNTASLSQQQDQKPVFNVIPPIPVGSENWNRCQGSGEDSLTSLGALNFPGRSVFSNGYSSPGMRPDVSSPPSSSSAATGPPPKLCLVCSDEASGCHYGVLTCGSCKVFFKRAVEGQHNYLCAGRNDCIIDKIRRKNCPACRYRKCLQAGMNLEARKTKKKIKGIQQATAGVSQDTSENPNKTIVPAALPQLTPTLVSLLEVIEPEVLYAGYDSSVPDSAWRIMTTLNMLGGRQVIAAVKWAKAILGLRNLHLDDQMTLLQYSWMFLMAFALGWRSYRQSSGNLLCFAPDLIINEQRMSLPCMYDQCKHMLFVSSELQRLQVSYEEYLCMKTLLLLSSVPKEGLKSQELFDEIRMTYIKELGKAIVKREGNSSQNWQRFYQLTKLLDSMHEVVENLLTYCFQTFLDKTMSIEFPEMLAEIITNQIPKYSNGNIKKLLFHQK
Protocol: (§1) The receptor binding affinity was determined by competitive binding of a specifically binding ^3H-labeled tracer and the compound to be tested to receptors in the cytosol from animal target organs. In this case, receptor saturation and reaction equilibrium in the case of the following reaction conditions were sought:
(§2) Uterus cytosol of the estradiol-primed rabbit, stored at −30° C., in TED buffer (20 mmol of Tris/HCl, pH 7.4; 1 mmol of ethylenediamine tetraacetate, 2 mmol of dithiothreitol) with 250 mmol of saccharose. • Tracer: ^3H—ORG 2058 • Reference substance: Progesterone Glucocorticoid Receptor: • Thymus cytosol of the adrenalectomized rat, thymi stored at −30° C.; TED buffer • Tracer: ^3H-Dexamethasone, 20 nmol • Reference substance: Dexamethasone

Progesterone Receptor = target: T2, Progesterone Receptor (Oryctolagus cuniculus, UniProt P06186); assay: Receptor binding affinity, competitive binding of 3H-ORG 2058 tracer in uterus cytosol; conditions: relative binding affinity; uterus cytosol of the estradiol-primed rabbit; tracer 3H-ORG 2058; reference Progesterone = 100%
T2 construct: receptors in the cytosol from animal target organs; from tissue; host or cells: uterus cytosol of estradiol-primed rabbit
T2 sequence (P06186 1-930): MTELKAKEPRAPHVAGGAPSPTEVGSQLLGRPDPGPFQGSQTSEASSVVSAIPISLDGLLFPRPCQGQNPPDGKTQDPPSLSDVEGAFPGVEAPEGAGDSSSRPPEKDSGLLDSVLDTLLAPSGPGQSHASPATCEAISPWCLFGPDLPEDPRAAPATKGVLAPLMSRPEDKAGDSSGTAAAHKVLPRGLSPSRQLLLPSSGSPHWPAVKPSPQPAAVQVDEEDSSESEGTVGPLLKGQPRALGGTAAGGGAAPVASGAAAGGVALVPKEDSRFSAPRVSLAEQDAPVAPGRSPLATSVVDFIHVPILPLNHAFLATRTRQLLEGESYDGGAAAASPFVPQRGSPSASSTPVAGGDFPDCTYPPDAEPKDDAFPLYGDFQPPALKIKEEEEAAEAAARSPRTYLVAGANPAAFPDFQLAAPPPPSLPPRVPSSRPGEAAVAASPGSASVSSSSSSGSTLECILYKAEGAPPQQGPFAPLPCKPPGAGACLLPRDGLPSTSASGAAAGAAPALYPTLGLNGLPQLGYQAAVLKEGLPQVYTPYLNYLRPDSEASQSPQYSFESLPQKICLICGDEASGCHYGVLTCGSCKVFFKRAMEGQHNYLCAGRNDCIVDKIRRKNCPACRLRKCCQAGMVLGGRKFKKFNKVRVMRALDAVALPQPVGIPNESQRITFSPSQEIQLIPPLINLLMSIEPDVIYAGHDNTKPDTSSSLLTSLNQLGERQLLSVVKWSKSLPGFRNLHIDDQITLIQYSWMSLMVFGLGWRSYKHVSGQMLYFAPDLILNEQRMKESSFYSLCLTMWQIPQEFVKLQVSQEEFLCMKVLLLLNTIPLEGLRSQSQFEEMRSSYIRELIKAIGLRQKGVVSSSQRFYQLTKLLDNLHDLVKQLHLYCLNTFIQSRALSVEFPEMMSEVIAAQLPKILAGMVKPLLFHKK
Protocol: as §1, §2

pregnancy in the rat = assay: Early-abortive action in the rat; format: in vivo; conditions: subcutaneous, 5th to 7th day of pregnancy; dose giving complete inhibition of pregnancy
Protocol: The early-abortive action was determined in the rat after subcutaneous administration from the 5th to the 7th day of pregnancy [administration 0.2 ml/animal/day in benzyl benzoate/castor oil (1+4 v/v)]. The dose indicates what amount must be given to at least 4 animals apiece in comparison to untreated animals, so that a complete inhibition of pregnancy is achieved.

Structure (SMILES): COCC1(OC)CCC2C3CCC4=CC(=O)CCC4=C3C(c3ccc(C=NO)cc3)CC21C (stereo not drawn) [4-[17β-methoxy-17α-(methoxymethyl)-3-oxoestra-4,9-dien-11β-yl]benzaldehyde-1Z-oxime]
Glucocorticoid Receptor [Dexamethasone = 100%] (Glucocorticoid Receptor): 52%
Progesterone Receptor [Progesterone = 100%] (Progesterone Receptor): 126%
100% Early-abortive Action in the Rat (pregnancy in the rat): 1.0 mg/animal/day

Structure (SMILES): CC12CC(c3ccc(C=NO)cc3)C3=C4CCC(=O)C=C4CCC3C1CCC2(O)COCC(F)(F)F (stereo not drawn) [4-[17β-Hydroxy-(17α-(1,1,1-trifluoroethoxymethyl)-3-oxoestra-4,9-dien-11β-yl]benzaldehyde-1E-oxime]
Glucocorticoid Receptor [Dexamethasone = 100%] (Glucocorticoid Receptor): 94%
Progesterone Receptor [Progesterone = 100%] (Progesterone Receptor): 177%
100% Early-abortive Action in the Rat (pregnancy in the rat): 3.0 mg/animal/day

Structure (SMILES): COC[C@]1(OC)CC[C@H]2[C@@H]3CCC4=CC(=O)CCC4=C3[C@@H](c3ccc(/C=N/O)cc3)C[C@@]21C [4-[17β-Methoxy-17α-(methoxymethyl)-3-oxoestra-4,9-dien-11β-yl] benzaldehyde-1E-oxime]
Glucocorticoid Receptor [Dexamethasone = 100%] (Glucocorticoid Receptor): 78%
Progesterone Receptor [Progesterone = 100%] (Progesterone Receptor): 302%
100% Early-abortive Action in the Rat (pregnancy in the rat): 1.0 mg/animal/day

Progesterone Receptor [Progesterone = 100%] (Progesterone Receptor): 685%
Structure (SMILES): CC#C[C@]1(O)CC[C@H]2[C@@H]3CCC4=CC(=O)CCC4=C3[C@@H](c3ccc(N(C)C)cc3)C[C@@]21C [Ru 38 486, reference compound]
100% Early-abortive Action in the Rat (pregnancy in the rat): 3.0 mg/animal/day

Structure (SMILES): COCC1(O)CCC2C3CCC4=CC(=O)CCC4=C3C(c3ccc(C=NO)cc3)CC21C (stereo not drawn) [4-[17β-Hydroxy-(17α-(methoxymethyl)-3-oxoestra-4,9-dien-11β-] [4-[17β-hydroxy-17α-(methoxymethyl)-3-oxoestra-4,9-dien-11β-yl]benzaldehyde-1Z-oxime]
Glucocorticoid Receptor [Dexamethasone = 100%] (Glucocorticoid Receptor): 67%

Structure (SMILES): COCC1(O)CCC2C3CCC4=CC(=O)CCC4=C3C(c3ccc(C=NO)cc3)CC21C (stereo not drawn) [4-[17β-Hydroxy-(17α-(methoxymethyl)-3-oxoestra-4,9-dien-11β-] [4-[17β-Hydroxy-17α-(methoxymethyl)-3-oxoestra-4,9-dien-11β-yl]benzaldehyde-1E-oxime]
Glucocorticoid Receptor [Dexamethasone = 100%] (Glucocorticoid Receptor): 76%
100% Early-abortive Action in the Rat (pregnancy in the rat): 1.0 mg/animal/day
